# Source: patent publication US20250263376A1, “(E)-N-CINNAMOYLAMINOALKANOLS WITH MELANOGENESIS INHIBITORY ACTIVITY” (Uniwersytet Jagiellonski, priority 2024, published 2025)
# Where two headings read alike, the source gives them in different places.
# Experiments:
# tyrosinase = conditions: cited from earlier work; for mechanism of tyrosinase inhibition: literature [6,7]
# tyrosinase from mushroom [1] = target: T1, tyrosinase from mushroom (Agaricus bisporus, UniProt C7FF04); assay: Inhibition of commercial mushroom tyrosinase, substrate L-DOPA; assay type: biochemical; conditions: 500 μM; read-out: Tyrosinase inhibition with L-DOPA [%]
# Procedure: (§1) Studies on the Inhibition of the Activity of Commercial Tyrosinase from Mushroom (Sigma: T3824)
# (§2) The following substrates were used for the enzymatic reaction: L-tyrosine and L-3,4-dihyroxyphenylalanine (L-DOPA). Both substrates were used in independent experiments. According to the literature, the use of L-DOPA enables the assessment of tyrosinase diphenolase activity, and L-tyrosine—the tyrosinase monophenolase activity. The determinations were performed in 96-well plates, in each well there was placed: 170 μL or 127.5 μL of 50 mM phosphate buffer (pH=6.8) with tyrosinase (1U/well or 3U/well) and 10 μL of a solution of the tested compound in DMSO (the final concentration in the well was 500 μM, 250 μM or 125 μM). The negative control used 10 u L of pure solvent (DMSO). To initiate the reaction, an appropriate substrate was added: L-tyrosine (62.5 μL of solution in phosphate buffer) or L-DOPA (20 μL of solution in phosphate buffer). After a 25-minute incubation, the absorbance was measured at 475 nm using a microplate reader. The percentage of inhibition of tyrosinase activity was calculated using the formula: [(AC−AT)/[…], where AC—is the absorbance of the negative control, AT—is the absorbance of the sample containing the tested compound.
# S. typhimurium TA98 = assay: Ames microplate test, TA98; assay type: cell-based, Salmonella typhimurium
# Procedure: (§3) Bacteria were grown overnight in growth medium.
# S. typhimurium TA100 = assay: Ames microplate test, TA100; assay type: cell-based, Salmonella typhimurium
# Procedure: (§4) The study used the Ames microplate test (Ames MPF™ Penta 2 by Xenometrix, Allschwil, Switzerland). Growth medium, exposure medium, indicator medium, positive controls, hepatic microsomal fraction, NADP, glucose-6-phosphate, Salmonella typhimurium and Escherichia coli strains were components of the purchased experimental kit. Bacteria were grown overnight in growth medium. They were then exposed to the test compound at the appropriate concentration in exposure medium without or with the rat microsomal fraction S9 in 24-well plates for 90 min at 37° C. with shaking. Then, indicator medium was added to the wells and pipetted into 384-well plates, which were incubated for 48 hours at 37° C. without shaking. Results were assessed by counting the wells in which the medium turned yellow for each experimental condition.
# [2] = Lipophilicity coefficient RM0 by reversed phase thin layer chromatography; assay type: physicochemical; conditions: RP-18 TLC, methanol/phosphate buffer pH=7.4
# Procedure: Confirmation of the identity and purity of the obtained compounds consisted in the registration and interpretation of 1H NMR and 13C NMR spectra (the spectra were recorded using an ECZR 500 MHZ (JEOL) series FT-NMR spectrophotometer), as well as the registration and interpretation of LC-MS spectra (the spectra were recorded using Acquita UPLC system (Waters) coupled with a Waters TQD mass spectrometer). The melting point was measured using the open capillary method in the IA9300 device (Electrothermal). The lipophilicity coefficient RM0 was determined by reversed phase thin layer chromatography. In the study, aluminum plates 20×20 cm covered with modified silica gel RP-18 F254 (Merck) were used as the solid phase. The mobile phase consisted of solutions of methanol and 100 mM phosphate buffer (pH=7.4), characterized by a variable methanol content ranging from 95 to 65% (v/v). The tested compounds were dissolved in methanol to obtain solutions with a concentration of 1 mg/mL. Then, […] of the solutions prepared in this way were transferred to the starting line on aluminum plates, which were then placed in chromatographic chambers previously saturated with mobile phase vapors for at least 1 hour. All activities, including the development of chromatograms, were carried out at room temperature. After developing the chromatograms to approximately 1-2 cm from the end of the plate, the plates were dried and then the distance traveled by the tested compounds was visualized under UV light (λ=254 nm). The experiment was performed in duplicate for the specified conditions. For all samples, Rf was calculated according to the formula Rf=a/b, where a—the distance traveled by the tested compound, b—the distance traveled by the mobile phase. Then, the RM parameter was calculated for all samples according to the formula RM=log (1/Rf−1), obtaining a linear relationship between the RM values and the methanol concentration in the mobile phase. The log P coefficient was also calculated using the following computer programs: ACD/ChemSketch 2020.1.2 and ChemDraw 20.0.0.41.
# S. typhimurium TA1535 = assay: Ames microplate test, TA1535;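 also: bacteria exposed 90 min at 37 °C in exposure medium, then 48 h in indicator medium in 384-well plates, yellow (revertant) wells counted per condition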
# E. coli WP2 = assay: Ames microplate test, E. coli WP2;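 also: bacteria exposed to compound for 90 min at 37 °C in 24-well plates, then transferred with indicator medium to 384-well plates and incubated 48 h before yellow well counting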
# Procedure: as §4
# S. typhimurium TA1537 = assay: Ames microplate test, TA1537; assay type: cell-based, Salmonella typhimurium
# Procedure: as §3
# tyrosinase from mushroom [3] = target: T1, tyrosinase from mushroom; assay: Inhibition of commercial mushroom tyrosinase, substrate L-tyrosine; assay type: biochemical; conditions: 500 μM; read-out: Tyrosinase inhibition with L-tyrosine [%]
# Procedure: as §1, §2
# CHO-K1 cells = assay: Cytotoxicity (MTT) in CHO-K1 cells before the micronucleus test; assay type: cell-based, Chinese hamster; conditions: 24 hours
# Procedure: The assay was performed using a Chinese hamster ovary cell line (CHO-K1) purchased from the American Type Culture Collection (ATCC). The cells were cultured in F-12K medium with the addition of 10% fetal bovine serum (FBS) and antibiotics (streptomycin/penicillin) in an incubator at 37° C. and 5% CO2 concentration). Before the actual micronucleus test, a cytotoxicity assessment was performed to ensure that the actual test was performed only at safe concentrations. For this purpose, cells were transferred to 96-well plates and incubated with the tested compounds for 24 hours. After this time, the MTT test was performed and cell viability was assessed in comparison to the control group (cells cultured with DMSO at the same concentration as in the case of the tested samples).
# [4] = system: B16-F10 murine melanoma cell line; assay: Cytotoxicity (MTT) in B16-F10 murine melanoma cells; assay type: cell-based; conditions: 48 h
# Procedure: Cytotoxicity Assessment in the B16-F10 Murine Melanoma Cell Line (ATTC CRL-6745)—Preliminary Safety Assessment for Subsequent Studies
# In order to determine safe doses of compounds for testing the inhibition of melanogenesis in a murine melanoma cell line, cytotoxicity tests were performed. Cytotoxicity was determined by the colorimetric method using MTT ([3-(4,5-dimethyl-2-thiazolyl)-2,5-diphenyl-2H-tetrazolium bromide, Sigma M5655). For this purpose, cells were transferred to 96-well plates in an amount of 5000/well. After 24 h of culture in an incubator in F10-Ham medium with 1% FBS, the tested compounds at various concentrations were added to the wells together with fresh medium. DMSO was added to the medium in a negative control. The MTT test was performed after further culture for 48 h. Then the medium was removed and the formed formazan crystals were dissolved in DMSO. The absorbance was measured at 570 nm in a plate reader and the result was compared to the control (DMSO), which was 100%. The percentage of viability was calculated using the formula: [AT/AC*100], where AT is the absorbance of the test sample, AC—absorbance of the control sample.
# [5] = literature [7], read-out: IC50, tyrosinase inhibition
# T1 sequence (C7FF04 2-392): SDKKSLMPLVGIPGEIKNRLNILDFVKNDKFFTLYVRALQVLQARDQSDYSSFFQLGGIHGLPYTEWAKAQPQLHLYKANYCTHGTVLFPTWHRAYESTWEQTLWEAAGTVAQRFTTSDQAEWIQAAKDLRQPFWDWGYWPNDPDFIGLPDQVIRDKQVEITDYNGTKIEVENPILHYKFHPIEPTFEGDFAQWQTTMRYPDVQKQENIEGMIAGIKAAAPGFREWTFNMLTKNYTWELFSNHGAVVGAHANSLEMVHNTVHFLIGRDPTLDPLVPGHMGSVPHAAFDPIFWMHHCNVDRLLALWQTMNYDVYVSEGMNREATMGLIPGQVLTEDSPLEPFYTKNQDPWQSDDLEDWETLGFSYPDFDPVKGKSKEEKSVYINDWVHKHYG
# T1 sequence (G1K3P4 entry or part of it, further chain): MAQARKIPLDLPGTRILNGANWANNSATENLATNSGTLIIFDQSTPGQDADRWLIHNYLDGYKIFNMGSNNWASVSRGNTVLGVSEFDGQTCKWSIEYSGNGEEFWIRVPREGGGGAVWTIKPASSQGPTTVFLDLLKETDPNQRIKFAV
smiles,measurement,setting,value
"O=C(O)C=Cc1ccc(Cl)cc1Cl [2,4-dichlorocinnamic acid]",mechanism of tyrosinase inhibition,tyrosinase,reversible non-competitive mechanism
same,IC50,tyrosinase; [5],295 µM
O=C(O)C=Cc1ccccc1Cl [2-Chlorocinnamic acid],mechanism of tyrosinase inhibition,tyrosinase,reversible non-competitive mechanism
same,IC50,tyrosinase; [5],765 µM
COc1ccc(C=CC(=O)O)cc1 [4-methoxycinnamic acid],IC50,"tyrosinase; literature [6], read-out: IC50, tyrosinase diphenolase activity",420 µM
O=C(O)C=Cc1ccccc1 [Cinnamic acid],mechanism of tyrosinase inhibition,tyrosinase,non-competitive inhibitor
"CCC(O)CNC(=O)/C=C/c1ccc(Cl)cc1 (stereo not drawn) [Compound A-67, (2E)-3-(4-chlorophenyl)-N-(2-hydroxybutyl)prop-2-enamide]",inhibition at 500 µM,tyrosinase from mushroom [1],60.8 ± 1.99%
same,"Increase in the number of yellow wells compared to the reference level, TA98","S. typhimurium TA98; 0.5 mM, + S9",0.31
same,"Increase in the number of yellow wells compared to the reference level, TA98","S. typhimurium TA98; 0.5 mM, without S9",0.27
same,"Increase in the number of yellow wells compared to the reference level, TA98","S. typhimurium TA98; 1.0 mM, + S9",0.94
same,"Increase in the number of yellow wells compared to the reference level, TA98","S. typhimurium TA98; 1.0 mM, without S9",1.07
same,"Increase in the number of yellow wells compared to the reference level, TA98","S. typhimurium TA98; 2.0 mM, + S9",1.04
same,"Increase in the number of yellow wells compared to the reference level, TA98","S. typhimurium TA98; 2.0 mM, without S9",1.07
same,"Increase in the number of yellow wells compared to the reference level, TA100","S. typhimurium TA100; 0.5 mM, + S9",0.78
same,"Increase in the number of yellow wells compared to the reference level, TA100","S. typhimurium TA100; 0.5 mM, without S9",1.53
same,"Increase in the number of yellow wells compared to the reference level, TA100","S. typhimurium TA100; 1.0 mM, + S9",0.64
same,"Increase in the number of yellow wells compared to the reference level, TA100","S. typhimurium TA100; 1.0 mM, without S9",0.93
same,"Increase in the number of yellow wells compared to the reference level, TA100","S. typhimurium TA100; 2.0 mM, + S9",0.31
same,"Increase in the number of yellow wells compared to the reference level, TA100","S. typhimurium TA100; 2.0 mM, without S9",0.80
same,RM0,[2],2.46
same,"Increase in the number of yellow wells compared to the reference level, TA1535","S. typhimurium TA1535; 0.5 mM, + S9",0.27
same,"Increase in the number of yellow wells compared to the reference level, TA1535","S. typhimurium TA1535; 0.5 mM, without S9",0.30
same,"Increase in the number of yellow wells compared to the reference level, TA1535","S. typhimurium TA1535; 1.0 mM, + S9",0.54
same,"Increase in the number of yellow wells compared to the reference level, TA1535","S. typhimurium TA1535; 1.0 mM, without S9",0.45
same,"Increase in the number of yellow wells compared to the reference level, TA1535","S. typhimurium TA1535; 2.0 mM, + S9",0.13
same,"Increase in the number of yellow wells compared to the reference level, TA1535","S. typhimurium TA1535; 2.0 mM, without S9",1.04
same,"Increase in the number of yellow wells compared to the reference level, E. coli WP2","E. coli WP2; 0.5 mM, + S9",0.83
same,"Increase in the number of yellow wells compared to the reference level, E. coli WP2","E. coli WP2; 0.5 mM, without S9",0.50
same,"Increase in the number of yellow wells compared to the reference level, E. coli WP2","E. coli WP2; 1.0 mM, + S9",0.42
same,"Increase in the number of yellow wells compared to the reference level, E. coli WP2","E. coli WP2; 1.0 mM, without S9",1.00
same,"Increase in the number of yellow wells compared to the reference level, E. coli WP2","E. coli WP2; 2.0 mM, + S9",1.42
same,"Increase in the number of yellow wells compared to the reference level, E. coli WP2","E. coli WP2; 2.0 mM, without S9",0.83
same,"Increase in the number of yellow wells compared to the reference level, TA1537","S. typhimurium TA1537; 0.5 mM, + S9",1.00
same,"Increase in the number of yellow wells compared to the reference level, TA1537","S. typhimurium TA1537; 0.5 mM, without S9",0.00
same,"Increase in the number of yellow wells compared to the reference level, TA1537","S. typhimurium TA1537; 1.0 mM, + S9",1.33
same,"Increase in the number of yellow wells compared to the reference level, TA1537","S. typhimurium TA1537; 1.0 mM, without S9",0.18
same,"Increase in the number of yellow wells compared to the reference level, TA1537","S. typhimurium TA1537; 2.0 mM, + S9",0.00
same,"Increase in the number of yellow wells compared to the reference level, TA1537","S. typhimurium TA1537; 2.0 mM, without S9",0.82
same,inhibition at 500 µM,tyrosinase from mushroom [3],79.2 ± 1.2%
same,"% Viability [mean], CHO-K1",CHO-K1 cells; 100 μM,96.0%
same,"% Viability [mean], CHO-K1",CHO-K1 cells; 150 μM,90.3%
same,"% Viability [mean], CHO-K1",CHO-K1 cells; 200 μM,84.0%
same,"Cytotoxicity study in B16F10 cells, % viability",[4]; 150 μM,73.6%
same,"Cytotoxicity study in B16F10 cells, % viability",[4]; 200 μM,87.8%
same,"Cytotoxicity study in B16F10 cells, % viability",[4]; 250 μM,84.4%
